Reference: US20050222200A1, “AMIDE DERIVATIVES AS ION CHANNEL LIGANDS AND PHARMACEUTICAL COMPOSITIONS AND METHODS OF USING THE SAME” (Renovis, Inc., priority 2003, published 2005)

Target: VR1 (Rattus norvegicus, UniProt O35433)
Assay: Calcium imaging assay: inhibition of capsaicin induced calcium influx in DRG neurons (Fura2, microscope)
Type: cell-based
Parameters: endogenous in cells; host or cells: DRG neurons
Settings: capsaicin stimulation; class symbols per legend
Experimental: VR1 protein is a heat-gated cation channel that […] resulting in neuronal membrane depolarization and elevated intracellular calcium levels. Therefore the functional activity of compounds at the VR1 receptor may be determined by measuring changes in intracellular calcium levels in neurons such as the dorsal root ganglion.
DRG neurons were grown on PDL coated 96-well black-walled plates, in the presence of DMEM medium containing 5% Penstrep, 5% Glutamax, 200 μg/ml hygromycin, 5 μg/ml blasticide and 10% heat inactivated FBS. Prior to assay, cells were loaded with 5 μg/ml Fura2 in normal saline solution at 37° C for 40 minutes. Cells were then washed with normal saline to remove dye before commencement of the experiment.
The plated neurons were transferred into a chamber on the stage of a Nikon eclipse TE300 microscope after which neurons were allowed to attain a stable fluorescence for about 10 minutes before beginning the experiment. The assay consists of two stages, a pretreatment phase followed by a treatment phase. First, a solution of the test compound was added from a multivalve perfusion system to the cells for 1 minute (pretreatment). Immediately following, capsaicin (250 nM) was added in the presence of the test compound (treatment) for a specific period between 20 and 60 seconds.
Fura2 was excited at […] to indicate relative calcium ion concentration. Changes in wavelength measurements were made throughout the course of the experiment. The fluorescence ratio was calculated by dividing fluorescence measured at 340 nm by that at 380 nM. Data was collected using Intelligent Imaging’s Slidebook software. All compounds that inhibited capsaicin induced calcium influx greater than 75% were considered positives.
Fluorescence reflecting calcium ion influx is reduced.

Chain of VR1 (O35433 whole entry): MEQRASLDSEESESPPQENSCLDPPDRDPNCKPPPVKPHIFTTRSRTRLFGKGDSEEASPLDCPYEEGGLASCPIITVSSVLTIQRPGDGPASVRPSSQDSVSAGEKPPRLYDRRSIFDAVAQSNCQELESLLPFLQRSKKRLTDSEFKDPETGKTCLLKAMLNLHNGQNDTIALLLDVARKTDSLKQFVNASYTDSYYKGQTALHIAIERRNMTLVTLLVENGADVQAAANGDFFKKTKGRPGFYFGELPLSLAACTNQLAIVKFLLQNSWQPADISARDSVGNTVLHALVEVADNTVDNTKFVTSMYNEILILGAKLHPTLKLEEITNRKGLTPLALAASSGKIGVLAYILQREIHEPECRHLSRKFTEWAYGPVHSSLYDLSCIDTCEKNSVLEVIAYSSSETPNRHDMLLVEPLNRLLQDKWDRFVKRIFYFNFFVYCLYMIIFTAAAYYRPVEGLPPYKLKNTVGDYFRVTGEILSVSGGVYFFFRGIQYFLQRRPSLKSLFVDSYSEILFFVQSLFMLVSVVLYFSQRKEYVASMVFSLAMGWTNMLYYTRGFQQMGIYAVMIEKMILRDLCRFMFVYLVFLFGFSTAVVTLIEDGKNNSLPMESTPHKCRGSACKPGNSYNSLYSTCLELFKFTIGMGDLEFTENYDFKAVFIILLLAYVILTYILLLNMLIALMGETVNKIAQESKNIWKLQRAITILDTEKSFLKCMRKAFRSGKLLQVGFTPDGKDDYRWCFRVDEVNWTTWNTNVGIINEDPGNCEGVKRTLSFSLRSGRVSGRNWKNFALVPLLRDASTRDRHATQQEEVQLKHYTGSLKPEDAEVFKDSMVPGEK

Row | Structure (SMILES) | inhibition of calcium ion influx induced by capsaicin stimulation
1 | C/C(=C\C(C)(C)C)c1ccc(C(=O)Nc2ccc(C(C)(C)C)cc2)cc1 [Compound 334] | +++ (compound exhibited 50-75% inhibition of calcium ion influx induced by capsaicin stimulation)
2 | CCCCc1ccc(NC(=O)c2ccc(/C(C)=C/C(C)(C)C)cc2)cc1 [Compound 336] | ++ (compound exhibited 25-50% inhibition of calcium ion influx induced by capsaicin stimulation)
3 | COc1cc(NC(=O)c2ccc(/C(C)=C/C(C)(C)C)cc2)cc(C(F)(F)F)c1 [Compound 337] | + (compound exhibited 0-25% inhibition of calcium ion influx induced by capsaicin stimulation)
4 | C/C(=C\C(C)(C)C)c1ccc(C(=O)Nc2ccc(C)cc2C)cc1 [Compound 338] | + (compound exhibited 0-25% inhibition of calcium ion influx induced by capsaicin stimulation)
5 | C/C(=C\C(C)(C)C)c1ccc(C(=O)Nc2ccncn2)cc1 [Compound 341] | + (compound exhibited 0-25% inhibition of calcium ion influx induced by capsaicin stimulation)
6 | C/C(=C\C(C)(C)C)c1ccc(C(=O)Nc2ccc(C(F)(F)F)cn2)cc1 [Compound 344] | + (compound exhibited 0-25% inhibition of calcium ion influx induced by capsaicin stimulation)
7 | C/C(=C\C(C)(C)C)c1ccc(C(=O)Nc2ncc(C(F)(F)F)cc2Cl)cc1 [Compound 345] | + (compound exhibited 0-25% inhibition of calcium ion influx induced by capsaicin stimulation)
8 | C/C(=C\C(C)(C)C)c1ccc(C(=O)NCCc2cnc[nH]2)cc1 [Compound 356] | + (compound exhibited 0-25% inhibition of calcium ion influx induced by capsaicin stimulation)
9 | C/C(=C\C(C)(C)C)c1ccc(C(=O)NCc2cccnc2)cc1 [Compound 357] | + (compound exhibited 0-25% inhibition of calcium ion influx induced by capsaicin stimulation)
10 | C/C(=C/C(C)(C)C)c1ccc(C(=O)Nc2ccc3ccccc3c2)cc1 [Compound 358] | ++++ (compound exhibited 75% or greater inhibition of calcium ion influx induced by capsaicin stimulation)
11 | CC(C)(C)C#Cc1ccc(C(=O)Nc2ccc3c(c2)OCO3)cc1 [Compound 361] | ++++ (compound exhibited 75% or greater inhibition of calcium ion influx induced by capsaicin stimulation)
12 | CCN(CC)CCOC(=O)c1ccc(NC(=O)c2ccc(C#CC(C)(C)C)cc2)cc1 [Compound 363] | +++ (compound exhibited 50-75% inhibition of calcium ion influx induced by capsaicin stimulation)
13 | COc1cccc(NC(=O)c2ccc(C#CC(C)(C)C)cc2)c1 [Compound 364] | ++++ (compound exhibited 75% or greater inhibition of calcium ion influx induced by capsaicin stimulation)
14 | CC(C)(C)C#Cc1ccc(C(=O)Nc2ccc(Cl)cc2)cc1 [Compound 365] | + (compound exhibited 0-25% inhibition of calcium ion influx induced by capsaicin stimulation)
15 | COc1ccc(NC(=O)c2ccc(C#CC(C)(C)C)cc2)cc1Cl [Compound 366] | ++ (compound exhibited 25-50% inhibition of calcium ion influx induced by capsaicin stimulation)
16 | CC(C)(C)C#Cc1ccc(C(=O)Nc2ccc(C(F)(F)F)cc2)cc1 [Compound 367] | ++ (compound exhibited 25-50% inhibition of calcium ion influx induced by capsaicin stimulation)
17 | CC(C)(C)C#Cc1ccc(C(=O)Nc2ccc(Cl)c(C(F)(F)F)c2)cc1 [Compound 368] | ++++ (compound exhibited 75% or greater inhibition of calcium ion influx induced by capsaicin stimulation)
18 | COc1cc(NC(=O)c2ccc(C#CC(C)(C)C)cc2)cc(C(F)(F)F)c1 [Compound 372] | ++++ (compound exhibited 75% or greater inhibition of calcium ion influx induced by capsaicin stimulation)
